Reference: US9528155B2, “In vitro method for determining immunotoxicity of a compound” (UNIVERSITEIT MAASTRICHT, priority 2012, dated 2016)
Read-outs that look alike come from different tables or passages of the source.

What was measured:
Assay type in all cases: cell-based, human
[1] = test system: CRIM1; experiment: Fluidigm multiplex real-time quantitative PCR of marker gene CRIM1 in exposed Jurkat cells
[2] = test system: ABCA1; experiment: Fluidigm multiplex real-time quantitative PCR of marker gene ABCA1 in exposed Jurkat cells
[3] = test system: CHAC1; experiment: Fluidigm multiplex real-time quantitative PCR of marker gene CHAC1 in exposed Jurkat cells
[4] = test system: HMGCS1; experiment: Fluidigm multiplex real-time quantitative PCR of marker gene HMGCS1 in exposed Jurkat cells
[5] = Jurkat cells, 6 h exposure at sub-cytotoxic exposure conc. of Tables 1/2, vs vehicle control, N=3, below -1.0 = underexpression

Compound | Expression levels of marker genes upon exposure: CRIM1 (Fold Change) [1] | Expression levels of marker genes upon exposure: ABCA1 (Fold Change) [2] | Expression levels of marker genes upon exposure: CRIM1 (Fold Change) [1, 5] | Expression levels of marker genes upon exposure: CHAC1 (Fold Change) [3, 5] | Expression levels of marker genes upon exposure: HMGCS1 (Fold Change) [4, 5] | Expression levels of marker genes upon exposure: ABCA1 (Fold Change) [2, 5] | Expression levels of marker genes upon exposure: CHAC1 (Fold Change) [3] | Expression levels of marker genes upon exposure: HMGCS1 (Fold Change) [4]
O=[N+]([O-])c1ccc2ccc3cccc4ccc1c2c34 [1-NPR, 1-Nitropyrene] | 1.3 ± 1.6 | 1.3 ± 1.2 | – | – | – | – | – | –
Sc1ncnc2nc[nH]c12 [6MP, 6-mercaptopurine] | – | – | 1.0 ± 0.6 | 1.8 ± 1.1 | – | – | – | –
CC1(C)S[C@@H]2[C@H](NC(=O)[C@H](N)c3ccccc3)C(=O)N2[C@H]1C(=O)O [AMP, ampicillin] | – | – | 1.2 ± 1.1 | – | 1.4 ± 0.3 | – | – | –
Cn1cnc([N+](=O)[O-])c1Sc1ncnc2nc[nH]c12 [AZA, azathioprine] | – | – | 1.8 ± 1.0 | 2.3 ± 2.1 | 1.1 ± 0.2 | – | – | –
O=[N+]([O-])[O-].[Ag+] [AgNO3, silver nitrate] | – | – | 1.1 ± 0.3 | −1.1 ± 0.5 | 1.6 ± 0.9 | 1.5 ± 1.2 | – | –
O=P1(N(CCCl)CCCl)NCCCO1 (stereo not shown) [CP S9, cyclophosphamide] | – | – | 1.1 ± 0.3 | – | 2.0 ± 1 | 1.9 ± 1.6 | – | –
[Cl][Cd][Cl] [CdCl2, cadmium dichloride] | – | – | 4.3 ± 2.0 | 7.0 ± 1.5 | 2.2 ± 1.3 | 1.3 ± 1.3 | – | –
CCCCC(CC)COC(=O)c1ccccc1C(=O)OCC(CC)CCCC (stereo not shown) [DEHP, Bis(2-ethylhexyl)phthalate] | – | – | 1.9 ± 1.5 | – | 1.2 ± 0.1 | – | – | –
C[C@@H]1C[C@H]2[C@@H]3CCC4=CC(=O)C=C[C@]4(C)[C@@]3(F)[C@@H](O)C[C@]2(C)[C@@]1(O)C(=O)CO [DEX, dexamethasone] | – | – | 1.4 ± 0.6 | – | 1.0 ± 0.1 | – | – | –
CN(C)N=O [DMNA, dimethylnitrosamine] | −12 ± 1.5 | −1.8± | – | – | – | – | −1.5 ± 1.5 | 1.2 ± 1.1
CC1=C[C@H]2O[C@@H]3[C@H](O)C[C@](C)([C@@]2(CO)[C@H](O)C1=O)[C@]31CO1 [DON, deoxynivalenol] | – | – | 1.4 ± 0.4 | −1.4 ± 0.4 | −1.5 ± 0.3 | −1.9 ± 0.2 | – | –
CCO [EtOH, ethanol] | – | – | – | 34.3 ± 2.3 | – | 1.2 ± 1.0 | – | –
Cn1c(N)nc2c3cccnc3ccc21 [IQ, 2-amino-3-methyl-3H-imidazo[4,5-F]quinoline] | 1.1 ± 1.8 | 1.0 ± 2.2 | – | – | – | – | – | –
Cl[C@H]1[C@H](Cl)[C@@H](Cl)[C@@H](Cl)[C@H](Cl)[C@H]1Cl [LIN, Gamma-hexachlorocyclohexane] | – | – | 2.3 ± 0.1 | 10.2 ± 7.6 | −2.4 ± 0 | 3.4 ± 3.6 | – | –
OC[C@@H](O)[C@@H](O)[C@H](O)[C@H](O)CO [MANNITOL] | – | – | 1.1 ± 0.7 | – | 1.2 ± 0.3 | – | – | –
C=CC(=O)NCNC(=O)C=C [MBA, N,N′-methylenebisacrylamide] | 1.1 ± 1.9 | – | – | – | – | – | 1.5 ± 2.1 | 1.0 ± 1.1
CCCCC(CC)COC(=O)c1ccccc1C(=O)O (stereo not shown) [MEHP, mono-(2-ethylhexyl) phthalate] | −1 ± 0.6 | −1.2 ± 0.1 | – | – | – | – | 3.5 ± 2.1 | 1.6 ± 0.9
COc1c(C)c2c(c(O)c1C/C=C(\C)CCC(=O)O)C(=O)OC2 [MPA, mycophenolic acid] | – | – | – | 1.5 ± 0.9 | – | 1.1 ± 0.7 | – | –
CN(Cc1cnc2nc(N)nc(N)c2n1)c1ccc(C(=O)N[C@@H](CCC(=O)O)C(=O)O)cc1 [MTX, methotrexate] | – | – | 1.4 ± 1.1 | – | – | – | – | –
C[C@@H]1Cc2c(Cl)cc(C(=O)N[C@@H](Cc3ccccc3)C(=O)O)c(O)c2C(=O)O1 [OTA, ochratoxin A] | – | – | −1.3 ± 0.1 | 32.9 ± 14.5 | −2.5 ± 0.1 | −2.2 ± 0.1 | – | –
Clc1cc(Cl)c(-c2cc(Cl)c(Cl)cc2Cl)cc1Cl [PCB153, polychlorinated biphenyl 153] | −1.2 ± 2.2 | 1.1 ± 1.4 | – | – | – | – | 1.2 ± 3 | 2.0 ± 1.2
O=S(=O)(O)C(F)(F)C(F)(F)C(F)(F)C(F)(F)C(F)(F)C(F)(F)C(F)(F)C(F)(F)F [PFOS] | −1.5 ± 0.4 | −4.3 ± 0.2 | – | – | – | – | 1.8 ± 1.5 | −1.1 ± 0.2
C[C@]12C=CC(=O)C=C1CC[C@@H]1[C@@H]2[C@@H](O)C[C@@]2(C)[C@H]1CC[C@]2(O)C(=O)CO [PRD, prednisolone] | – | – | 3.9 ± 0.6 | 2.7 ± 1.9 | 1.7 ± 0.1 | 1.0 ± 0.6 | – | –
CCC(=O)Nc1ccc(Cl)c(Cl)c1 [PROP, N-(3,4-Dichloro-phenyl)propanamide] | – | – | 1.4 ± 0.1 | – | – | 1.3 ± 1 | – | –
CCOC(N)=O [urethane] | – | – | 1.1 ± 0.5 | 1.2 ± 0.4 | 1.2 ± 0.3 | – | – | –
arsenic trioxide [As2O3] | – | – | 2.4 ± 1.1 | 41.2 ± 32.5 | −1.1 ± 0.2 | 1.4 ± 0.3 | – | –
ochratoxin A, S9-treated [OTA S9] | – | – | −1.1 ± 0.5 | −13.8 ± 0.0 | 2.0 ± 1.0 | 1.3 ± 1.8 | – | –
tributyltin oxide [TBTO] | – | – | −1.1 ± 0.8 | −1.1 ± 0.4 | −1.5 ± 0.1 | 30.9 ± 8.5 | – | –
